Measured values taken from patent US20220276186A1, “OPTIMIZED ANALYTE DERIVATIZATION FOR SYNERGISTIC APPLICATION WITH CRYSTAL SPONGE METHOD” (MERCK PATENT GMBH, priority 2019, published 2022).

Test: solubility of the analyte in chloroform (step i of Procedure 1, crystalline sponge method)
Assay type: physicochemical
Protocol: Procedure 1—absorption of an organic molecule into a single porous crystal. Specifically, procedure 1 describes absorption of an organic molecule into a crystalline sponge comprising [(ZnCl2)3(tpt)2.(cyclohexane)x] (tpt=1,3,5-tris(4-pyridyl)triazine. The organic molecule is first dissolved in trichloro methane (chloroform), i.e., the sample comprises the organic molecule in trichloro methane. The procedure comprises the steps: • i—1 mg of organic molecule is dissolved in 1 ml of chloroform at room temperature. (Proportionally lower quantities can be used, depending on the available amount of analyte.) • ii—A single crystal of [(ZnCl2)3(tpt)2.(cyclohexane)x] (tpt=1,3,5-tris(4-pyridyl)triazine) crystal sponge of about 100 μm diameter, which has been visually inspected under a microscope and found to be without twinning or visible cracks, is placed in a septum screw-top glass vial with conically pointed bottom, submerged in 50 μl of cyclohexane. • iii—4.5 μl of the solution obtained in step (i) (containing 4.5 μg of analyte) is added to the crystalline sponge in cyclohexane as described in step (ii). • iv—The screw-top is closed, and the septum is pierced with a medical-type syringe needle, which may be left in that position to enable slow solvent evaporation. This assembly is incubated at 50° C. for 24 or more hours. […]

amount of analyte that could be dissolved in 1 ml chloroform (20° C.)	solution of analyte in chloroform that could be prepared without difficulty (Procedure 1 step i (room temperature)) [mg in 1 ml]	SMILES
about 0.005 mg in 1 ml		O=c1c(-c2ccc(O)cc2)coc2cc(O)ccc12 [4′,7-dihydroxy isoflavone]
	≥ 1	COc1ccc(-c2coc3cc(OC)ccc3c2=O)cc1 [4′,7-dimethoxy isoflavone]
